Assays:
[1] = tested on: neonate CBW (cotton bollworm) larvae; assay: Surface-treated diet test against neonate CBW larvae; assay type: in vivo, Heliothis zea
Procedure: (§1) Each test compound was formulated by dissolving the compound in an acetone/alcohol (1:1) mixture containing 23 g of "Toximul R" (sulfonate/nonionic emulsifier blend) and 13 g of "Toximul S" (sulfonate/nonionic emulsifier blend) per liter. These mixtures were then diluted with water to give the indicated concentrations.
(§2) Additional insects were evaluated using similar formulations and evaluation procedures, with the exceptions noted.
(§3) After standard exposure periods, percent mortality was evaluated. The following abbreviations are used:
(§4) ^b Mean of two replicates tested
^d Diet is surface treated with A83543A, allowed to dry and infested

[2] = tested on: CBW (cotton bollworm) ova; assay: Topical treatment of CBW eggs (ova); assay type: in vivo, Heliothis zea; settings: 144 h, 6 days
Procedure: as §1, §2, §3, §4
^e Eggs topically treated with A83543A and held until control eggs

[3] = tested on: SAW (Southern armyworm) larvae; assay: Topical test against SAW larvae; assay type: in vivo; settings: Spodoptera eridania
Procedure: as §1, §2, §3
^a Days between treatment and observation
^b Mean of replicates tested
^f Treated topically with 1 mL of formulated A83543A

CA (cotton aphid) = assay: Greenhouse test against CA; assay type: in vivo; settings: Aphis gossypii, squash
Procedure: as §1
Two-spotted spider mites (Tetranychus urticae Koch) and cotton or melon aphids (Aphis gossypii Glover) were introduced on squash cotyledons and allowed to establish on both leaf surfaces. Other plants in the same treatment pot were left uninfested. The leaves were then sprayed with 5 mL of test solution using a DeVilbiss atomizing sprayer at 10 psi. Both surfaces of the leaves were covered until runoff and then allowed to dry for one hour. Two uninfested leaves were then excised and placed into a Petri dish containing Southern armyworm (Spodoptera eridania Cramer).
After standard exposure periods, percent mortality was evaluated.

Spodoptera eridania = assay: Outdoor pot tests against Southern armyworm; assay type: in vivo
From the text: Table XV compares the effectiveness and persistence of A83543A treatment with that of methomyl in outdoor pot tests against Southern armyworm.

imported cabbage worm = assay: Field trial, imported cabbage worm on sprouting broccoli; assay type: in vivo
Procedure: A83543A was evaluated in field trials.

blow fly larvae (LBF) [4] = assay: Guinea pig systemic test, blow fly larvae; assay type: in vivo
Procedure: (§5) Adult guinea pigs are used in this test system. The compounds to be tested are dissolved in aqueous polyvinyl pyrrolidone or in polyethylene glycol 200, and an appropriate amount of the solution is administered either orally or by intraperitoneal injection.
(§6) Blood is drawn from the guinea pigs at 30 minutes except as noted, and the samples of blood are centrifuged. Dental wicks are saturated with the blood serum, and then exposed in Petri dishes to adult stable flies; blow fly larvae are exposed in test tubes. After 24 and 48 hours, the insects are examined, and the number of dead are counted. The results of the tests are recorded as the percent of the insects which are killed.

adult stable fly (ASF) = assay: Guinea pig systemic test, adult stable fly; assay type: in vivo, Stomoxys calcitrans
Procedure: as §5, §6

blow fly larvae (LBF) [5] = assay: Sheep systemic test, blow fly larvae; assay type: in vivo
Procedure: as §6
Tests are carried out in sheep using the test method described supra in the Guinea Pig Test description. Test compound is administered by intraperitoneal or intravenous injection or intraruminally; blood samples are drawn at 24 hours in these tests.

guinea pigs = assay: Toxicity to the host animal, guinea pig systemic test; assay type: in vivo; set-up: key: N: none
Procedure: as §5, §6

CC[C@H]1CCC[C@H](O[C@H]2CC[C@H](N(C)C)[C@@H](C)O2)[C@@H](C)C(=O)C2=C[C@@H]3[C@@H](C=C[C@@H]4C[C@@H](O[C@@H]5O[C@@H](C)[C@H](OC)[C@@H](OC)[C@H]5OC)C[C@@H]34)[C@@H]2CC(=O)O1 [A83543A]
inhibition at 0.5 ppm ([1]; 72 h, 3 days, 0.50 ppm): 15% | inhibition at 1 ppm ([1]; 72 h, 3 days): 45% | inhibition at 5 ppm ([1]; 72 h, 3 days): 100% | inhibition at 10 ppm ([1]; 72 h, 3 days): 100% | inhibition at 50 ppm ([1]; 72 h, 3 days): 100% | inhibition at 1 ppm ([1]; 96 h, 4 days): 30% | inhibition at 5 ppm ([1]; 96 h, 4 days): 100% | inhibition at 10 ppm ([1]; 96 h, 4 days): 100% | inhibition at 50 ppm ([1]; 96 h, 4 days): 100% | inhibition at 100 ppm ([1]; 96 h, 4 days, 100.00 ppm): 100% | inhibition at 10 ppm ([2]; 10.00 ppm): 0% | inhibition at 50 ppm ([2]; 50.00 ppm): 0% | inhibition at 100 ppm ([2]; 100.00 ppm): 30% | inhibition at 1 ppm ([3]; 24 h, second instar, 1 day): 0% | inhibition at 5 ppm ([3]; 24 h, second instar, 1 day): 0% | inhibition at 10 ppm ([3]; 24 h, second instar, 1 day): 0% | inhibition at 50 ppm ([3]; 24 h, second instar, 1 day): 80% | inhibition at 100 ppm ([3]; 24 h, second instar, 1 day): 100% | inhibition at 10 ppm ([3]; 48 h, fifth instar, 2 days): 0% | inhibition at 50 ppm ([3]; 48 h, fifth instar, 2 days): 0% | inhibition at 1 ppm ([3]; 48 h, third instar, 2 days): 0% | inhibition at 5 ppm ([3]; 48 h, third instar, 2 days): 0% | inhibition at 10 ppm ([3]; 48 h, third instar, 2 days): 13.3% | inhibition at 50 ppm ([3]; 48 h, third instar, 2 days): 73.3% | inhibition at 1 ppm ([3]; 72 h, neonate, 3 days): 0% | inhibition at 5 ppm ([3]; 72 h, neonate, 3 days): 60% | inhibition at 10 ppm ([3]; 72 h, neonate, 3 days): 100% | inhibition at 50 ppm ([3]; 72 h, neonate, 3 days): 100% | inhibition at 100 ppm ([3]; 72 h, neonate, 3 days): 100% | inhibition at 25 ppm (CA (cotton aphid); 25 ppm, second series): 0% | inhibition at 50 ppm (CA (cotton aphid); first series): 0% | inhibition at 50 ppm (CA (cotton aphid); second series): 40% | inhibition at 100 ppm (CA (cotton aphid); first series): 0% | inhibition at 100 ppm (CA (cotton aphid); second series): 80% | mortality at 63 ppm (Spodoptera eridania; 24 h, 1 day after treatment): 100% | mortality at 125 ppm (Spodoptera eridania; 24 h, 1 day after treatment): 100% | mortality at 250 ppm (Spodoptera eridania; 24 h, 1 day after treatment): 100% | mortality at 500 ppm (Spodoptera eridania; 24 h, 1 day after treatment): 100% | mortality at 63 ppm (Spodoptera eridania; 120 h, 5 days after treatment): 88% | mortality at 125 ppm (Spodoptera eridania; 120 h, 5 days after treatment): 88% | mortality at 250 ppm (Spodoptera eridania; 120 h, 5 days after treatment): 95% | mortality at 500 ppm (Spodoptera eridania; 120 h, 5 days after treatment): 100% | mortality at 63 ppm (Spodoptera eridania; 168 h, 7 days after treatment): 90% | mortality at 125 ppm (Spodoptera eridania; 168 h, 7 days after treatment): 95% | mortality at 250 ppm (Spodoptera eridania; 168 h, 7 days after treatment): 100% | mortality at 500 ppm (Spodoptera eridania; 168 h, 7 days after treatment): 100% | mortality at 63 ppm (Spodoptera eridania; 336 h, 14 days after treatment): 5% | mortality at 125 ppm (Spodoptera eridania; 336 h, 14 days after treatment): 90% | mortality at 250 ppm (Spodoptera eridania; 336 h, 14 days after treatment): 100% | mortality at 500 ppm (Spodoptera eridania; 336 h, 14 days after treatment): 100% | activity in field trials (imported cabbage worm): showed activity | LBF activity (% mortality) (blow fly larvae (LBF) [4]; 10 mg/kg IP, 30 min): 0% | % Activity LBF (blow fly larvae (LBF) [4]; 10 mg/kg IP, bled 30 min): 0% | % Activity LBF (blow fly larvae (LBF) [4]; 10 mg/kg IP, bled 5 hr): 0% | % Activity LBF (blow fly larvae (LBF) [4]; 10 mg/kg IP, bled 24 hr): 0% | LBF activity (% mortality) (blow fly larvae (LBF) [4]; 20 mg/kg IP, 30 min): 0% | % Activity LBF (blow fly larvae (LBF) [4]; 20 mg/kg IP, bled 30 min): 0% | % Activity LBF (blow fly larvae (LBF) [4]; 20 mg/kg IP, bled 5 hr): 0% | % Activity LBF (blow fly larvae (LBF) [4]; 20 mg/kg IP, bled 24 hr): 0% | LBF activity (% mortality) (blow fly larvae (LBF) [4]; 30 mg/kg IP): 90% | % Activity LBF (blow fly larvae (LBF) [4]; 30 mg/kg IP, bled 30 min): 90% | % Activity LBF (blow fly larvae (LBF) [4]; 30 mg/kg IP, bled 5 hr): 50% | % Activity LBF (blow fly larvae (LBF) [4]; 30 mg/kg IP, bled 24 hr): 30% | LBF activity (% mortality) (blow fly larvae (LBF) [4]; 50 mg/kg IP, 30 min): 100% | % Activity LBF (blow fly larvae (LBF) [4]; 50 mg/kg IP, bled 30 min): 100% | % Activity LBF (blow fly larvae (LBF) [4]; 50 mg/kg IP, bled 5 hr): 95% | % Activity LBF (blow fly larvae (LBF) [4]; 50 mg/kg IP, bled 24 hr): 25% | LBF activity (% mortality) (blow fly larvae (LBF) [4]; 50 mg/kg OR (oral), 30 min): 100% | % Activity LBF (blow fly larvae (LBF) [4]; 50 mg/kg oral, bled 5 hr): 100% | % Activity LBF (blow fly larvae (LBF) [4]; 50 mg/kg oral, bled 24 hr): 0% | % Activity ASF (adult stable fly (ASF); 10 mg/kg IP, bled 30 min): 0% | % Activity ASF (adult stable fly (ASF); 10 mg/kg IP, bled 5 hr): 0% | % Activity ASF (adult stable fly (ASF); 10 mg/kg IP, bled 24 hr): 0% | % Activity ASF (adult stable fly (ASF); 20 mg/kg IP, bled 30 min): 0% | % Activity ASF (adult stable fly (ASF); 20 mg/kg IP, bled 5 hr): 0% | % Activity ASF (adult stable fly (ASF); 20 mg/kg IP, bled 24 hr): 0% | % Activity ASF (adult stable fly (ASF); 30 mg/kg IP, bled 30 min): 50% | % Activity ASF (adult stable fly (ASF); 30 mg/kg IP, bled 5 hr): 0% | % Activity ASF (adult stable fly (ASF); 30 mg/kg IP, bled 24 hr): 0% | % Activity ASF (adult stable fly (ASF); 50 mg/kg IP, bled 30 min): 100% | % Activity ASF (adult stable fly (ASF); 50 mg/kg IP, bled 5 hr): 40% | % Activity ASF (adult stable fly (ASF); 50 mg/kg IP, bled 24 hr): 30% | % Activity ASF (adult stable fly (ASF); 50 mg/kg oral, bled 5 hr): 60% | % Activity ASF (adult stable fly (ASF); 50 mg/kg oral, bled 24 hr): 0% | mortality at 10 mg/kg (adult stable fly (ASF); Stomoxys calcitrans, in Cavia porcellus, 10 mg/kg IP): 0% | mortality at 20 mg/kg (adult stable fly (ASF); Stomoxys calcitrans, in Cavia porcellus, 20 mg/kg IP): 0% | mortality at 30 mg/kg (adult stable fly (ASF); Stomoxys calcitrans, in Cavia porcellus, 30 mg/kg IP): 50% | mortality at 50 mg/kg (adult stable fly (ASF); Stomoxys calcitrans, in Cavia porcellus, 50 mg/kg IP): 100% | mortality at 50 mg/kg (adult stable fly (ASF); Stomoxys calcitrans, in Cavia porcellus, 50 mg/kg OR (oral), 5-hr blood sample): 60% | LBF activity (% mortality) (blow fly larvae (LBF) [5]; 1.0 mg/kg IV): 25% | LBF activity (% mortality) (blow fly larvae (LBF) [5]; 10 mg/kg IP, 1440 min): 0% | LBF activity (% mortality) (blow fly larvae (LBF) [5]; 10 mg/kg IR, 1440 min): 0% | LBF activity (% mortality) (blow fly larvae (LBF) [5]; 30 mg/kg IP, 1440 min): 80% | LBF activity (% mortality) (blow fly larvae (LBF) [5]; 30 mg/kg IR, 1440 min): 100% | LBF activity (% mortality) (blow fly larvae (LBF) [5]; 50 mg/kg IP, 1440 min): 20% | LBF activity (% mortality) (blow fly larvae (LBF) [5]; 50 mg/kg IR, 1440 min): 100% | LBF activity (% mortality) (blow fly larvae (LBF) [5]; 2 × 25 mg/kg IR, 1440 min): 100% | Tox (guinea pigs; 10 mg/kg IP): N | Tox (guinea pigs; 20 mg/kg IP): N | Tox (guinea pigs; 30 mg/kg IP): N | Tox (guinea pigs; 50 mg/kg IP): N | Tox (guinea pigs; 50 mg/kg OR (oral)): N
